The text below walks through data of ChEMBL document CHEMBL5346964, “Discovery of LNP1892: A Precision Calcimimetic for the Treatment of Secondary Hyperparathyroidism” (J Med Chem, 2023).

Where only a bound is given, the exact number is not on record here.

For series [1], the target named is T1, Extracellular calcium-sensing receptor (Homo sapiens, UniProt P41180).
T1 sequence (P41180 whole entry): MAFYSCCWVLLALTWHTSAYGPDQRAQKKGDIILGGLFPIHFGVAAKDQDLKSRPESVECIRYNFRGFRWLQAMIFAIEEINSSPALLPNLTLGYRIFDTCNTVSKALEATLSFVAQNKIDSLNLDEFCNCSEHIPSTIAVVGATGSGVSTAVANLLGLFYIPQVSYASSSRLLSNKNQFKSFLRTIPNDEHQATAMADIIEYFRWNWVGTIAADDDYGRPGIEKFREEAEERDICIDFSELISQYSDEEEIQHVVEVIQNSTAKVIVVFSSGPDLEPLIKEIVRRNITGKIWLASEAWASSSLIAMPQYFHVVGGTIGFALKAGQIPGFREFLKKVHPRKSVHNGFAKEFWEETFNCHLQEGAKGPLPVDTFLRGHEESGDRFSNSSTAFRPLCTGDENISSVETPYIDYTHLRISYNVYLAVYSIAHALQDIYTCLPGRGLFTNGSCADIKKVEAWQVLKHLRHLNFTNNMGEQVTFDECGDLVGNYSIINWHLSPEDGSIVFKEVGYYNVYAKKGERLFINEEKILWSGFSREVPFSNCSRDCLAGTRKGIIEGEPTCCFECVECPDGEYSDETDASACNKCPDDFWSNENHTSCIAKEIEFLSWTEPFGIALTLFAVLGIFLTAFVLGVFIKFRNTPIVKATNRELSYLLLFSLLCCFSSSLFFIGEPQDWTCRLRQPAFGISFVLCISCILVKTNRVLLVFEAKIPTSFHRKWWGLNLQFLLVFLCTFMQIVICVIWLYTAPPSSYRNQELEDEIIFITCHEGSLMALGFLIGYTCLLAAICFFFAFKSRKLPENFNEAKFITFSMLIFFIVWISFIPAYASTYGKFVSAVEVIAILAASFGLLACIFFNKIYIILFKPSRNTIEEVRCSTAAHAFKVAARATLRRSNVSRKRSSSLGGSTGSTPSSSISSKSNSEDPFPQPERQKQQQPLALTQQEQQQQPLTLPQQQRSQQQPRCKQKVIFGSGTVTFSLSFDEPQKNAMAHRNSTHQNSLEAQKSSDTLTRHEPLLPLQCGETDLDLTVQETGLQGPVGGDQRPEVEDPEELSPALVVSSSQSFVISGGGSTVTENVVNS
The series is described as follows: Agonist activity at human CaSR expresssed in HEK293 cells in presence of glucose by Fluo4NW dye based FLIPR assay. The format is functional, cell-based.

Series [2] in a line: Microsomal stability in rat liver microsomes assessed as parent compound remaining at 1 uM measured upto 30 mins in presence of NADPH by LC-MS/MS analysis. The format is ADME, Microsome. Conditions: read-out: Stability; call rule not given here.
For series [3], the target named is T2, hERG (Homo sapiens, UniProt Q12809). Description: Inhibition of hERG at 1 uM relative to control. The format is toxicity.
The target of series [4] is T3, CYP2D6 (Homo sapiens, UniProt P10635). Description: Inhibition of CYP2D6 in human liver microsomes at 10 uM preincubated for 5 mins followed by NADPH addition by LC-MS/MS analysis relative to control. Type of series: ADME, Microsome. For orientation: Liver microsomes are a subcellular fraction often used to study metabolism.
Series [5] can be described thus: Microsomal stability in human liver microsomes assessed as parent compound remaining at 1 uM measured upto 30 mins in presence of NADPH by LC-MS/MS analysis. Type of series: ADME, Microsome. Particulars: liver microsomes, read-out: Stability.
Series [6] addresses T2, hERG. Description: Inhibition of hERG at 10 uM relative to control. The format is toxicity.
Series [7] addresses T3, CYP2D6. Description: Inhibition of CYP2D6 in human liver microsomes at 1 uM preincubated for 5 mins followed by NADPH addition by LC-MS/MS analysis relative to control. Type of series: ADME, Microsome.

T2 sequence (Q12809 whole entry): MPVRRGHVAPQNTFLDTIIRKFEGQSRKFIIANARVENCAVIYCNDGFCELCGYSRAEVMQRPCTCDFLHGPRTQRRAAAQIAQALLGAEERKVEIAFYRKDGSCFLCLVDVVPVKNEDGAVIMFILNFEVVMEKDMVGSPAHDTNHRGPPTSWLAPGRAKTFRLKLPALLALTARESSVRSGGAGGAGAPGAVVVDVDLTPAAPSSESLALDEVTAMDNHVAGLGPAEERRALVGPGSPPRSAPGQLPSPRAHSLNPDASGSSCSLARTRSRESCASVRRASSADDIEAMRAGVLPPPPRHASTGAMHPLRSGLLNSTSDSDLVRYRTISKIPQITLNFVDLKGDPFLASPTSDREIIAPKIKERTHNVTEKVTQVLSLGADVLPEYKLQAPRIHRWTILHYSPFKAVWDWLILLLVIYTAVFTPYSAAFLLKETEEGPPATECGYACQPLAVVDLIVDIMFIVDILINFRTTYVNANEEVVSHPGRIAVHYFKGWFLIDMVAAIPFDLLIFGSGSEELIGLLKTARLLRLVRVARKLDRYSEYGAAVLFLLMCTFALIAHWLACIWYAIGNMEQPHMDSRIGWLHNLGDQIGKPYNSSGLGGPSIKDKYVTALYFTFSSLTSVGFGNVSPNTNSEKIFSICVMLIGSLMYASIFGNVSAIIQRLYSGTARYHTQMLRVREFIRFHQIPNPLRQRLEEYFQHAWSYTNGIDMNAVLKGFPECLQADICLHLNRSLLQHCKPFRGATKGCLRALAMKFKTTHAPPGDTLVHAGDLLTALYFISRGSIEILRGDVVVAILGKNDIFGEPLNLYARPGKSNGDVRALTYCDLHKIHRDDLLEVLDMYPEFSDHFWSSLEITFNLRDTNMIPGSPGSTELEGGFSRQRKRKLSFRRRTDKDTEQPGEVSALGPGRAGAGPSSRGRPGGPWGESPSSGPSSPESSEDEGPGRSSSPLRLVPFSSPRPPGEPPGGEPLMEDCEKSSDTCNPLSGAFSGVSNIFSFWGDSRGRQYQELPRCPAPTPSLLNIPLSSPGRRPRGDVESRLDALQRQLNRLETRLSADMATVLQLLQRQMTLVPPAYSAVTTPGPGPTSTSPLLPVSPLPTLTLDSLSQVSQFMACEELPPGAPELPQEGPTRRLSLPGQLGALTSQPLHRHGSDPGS
T3 sequence (P10635 whole entry): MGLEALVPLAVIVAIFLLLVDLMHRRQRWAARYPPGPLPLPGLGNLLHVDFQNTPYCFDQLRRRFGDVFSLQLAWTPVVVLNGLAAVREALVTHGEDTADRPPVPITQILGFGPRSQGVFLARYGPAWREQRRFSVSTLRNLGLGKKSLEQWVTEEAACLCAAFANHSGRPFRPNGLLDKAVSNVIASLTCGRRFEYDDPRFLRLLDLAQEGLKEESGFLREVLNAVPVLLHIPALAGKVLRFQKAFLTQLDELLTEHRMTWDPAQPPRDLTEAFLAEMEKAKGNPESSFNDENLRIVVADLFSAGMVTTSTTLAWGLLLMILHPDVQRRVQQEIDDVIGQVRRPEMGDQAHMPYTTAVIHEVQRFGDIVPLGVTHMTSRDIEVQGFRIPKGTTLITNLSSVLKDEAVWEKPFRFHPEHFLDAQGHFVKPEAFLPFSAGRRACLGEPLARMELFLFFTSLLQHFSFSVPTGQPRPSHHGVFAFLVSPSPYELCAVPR

Broadly, the EC50 is the concentration needed to bring the measured effect to its halfway point. For `C[C@@H](NCC1CN(c2ccccc2)c2ccccc2O1)c1cccc2ccccc12` (mixture of isomers; form 2), the EC50 in series [1] (read-out: EC50) is 114 nM.
By inhibition is commonly meant the relative decrease from the control value, in per cent. For the molecule `C[C@@H](NCC1CN(C(=O)c2ccccc2)c2ccccc2O1)c1cccc2ccccc12` (mixture of isomers; form 1), the figures for the remaining at 0.5 h, 1 µM in series [2] and in series [5] were 0% and 3%, respectively. Moreover, the inhibition at 1 µM against hERG [3] came to 16%; at CYP2D6 [7], 7%. Moreover, the inhibition at 10 µM was 72% at CYP2D6 [4] and 52% on hERG [6]. The EC50 in series [1] (read-out: EC50) came to 21 nM.
`COc1ccc(N2CC(CN[C@H](C)c3cccc4ccccc34)Oc3ccccc32)cc1C(=O)O` (mixture of isomers; form 1): the EC50 in series [1] (read-out: EC50) was greater than 300 nM.
In the case of `C[C@@H](NCC1CN(c2cccc(CCC(=O)O)c2)c2ccccc2O1)c1cccc2ccccc12.Cl` (mixture of isomers), the EC50 entry is “Not Active” in series [1] (hek293) and 70.4 nM in series [1] (read-out: EC50).
In the case of `C[C@@H](NCC1CNc2ccccc2O1)c1cccc2ccccc12` (stereo partly specified), the remaining at 0.5 h, 1 µM was 0% in series [2] and 18% in series [5]. The inhibition at 1 µM against hERG [3] came to 19%; against CYP2D6 [7] it was 94%. In addition, the figures for the inhibition at 10 µM at CYP2D6 [4] and on hERG [6] were 94% and 97%, respectively.
With `C[C@@H](NCC1CN(c2ccccc2C(=O)O)c2ccccc2O1)c1cccc2ccccc12.Cl` (mixture of isomers), the EC50 result in series [1] (hek293) is “Not Active”.
Turning to `Cc1ccc([C@H]2C[C@@H](CN[C@H](C)c3cccc4ccccc34)Oc3ccccc32)cc1C(=O)O`, the figures for the remaining at 0.5 h, 1 µM in series [2] and in series [5] were 62% and 74%, respectively. In addition, the figures for the inhibition at 1 µM at hERG [3] and against CYP2D6 [7] were 9% and 7%, respectively. Besides, the inhibition at 10 µM against CYP2D6 [4] was 32%; against hERG [6] it was 1%. Moreover, in series [1] (read-out: EC50), the EC50 was found to be 3.7 nM.
Regarding `Cc1ccc(N2CC(CN[C@H](C)c3cccc4ccccc34)Oc3ccccc32)cc1C(=O)O` (mixture of isomers), the EC50 in series [1] (read-out: EC50) came out at 71.4 nM.
With `C[C@@H](NC[C@H]1C[C@@H](c2cccc(C(=O)O)c2)c2ccccc2O1)c1cccc2ccccc12`, the figures for the remaining at 0.5 h, 1 µM in series [2] and in series [5] were 31% and 42%, respectively. Moreover, on CYP2D6 [4], the inhibition at 10 µM came to 35%. Besides, on CYP2D6 [7], the inhibition at 1 µM stood at 17%.
Consider `C[C@@H](NCC1CN(c2ccc(C(=O)O)cc2)c2ccccc2O1)c1cccc2ccccc12` (stereo partly specified), for which the remaining at 0.5 h, 1 µM is 28% in series [2] and 34% in series [5]. In addition, the values for the inhibition at 1 µM on hERG [3] and against CYP2D6 [7] were 5% and 65%, respectively. Further, the figures for the inhibition at 10 µM against CYP2D6 [4] and against hERG [6] were 65% and -43%, respectively. In addition, the concentration giving a half-maximal response (EC50) in series [1] (read-out: EC50) came out at 64.9 nM.
As to `Cc1ccc(C(=O)O)cc1[C@@H]1C[C@H](CN[C@H](C)c2cccc3ccccc23)Oc2ccccc21`, the remaining at 0.5 h, 1 µM in series [2] was found to be 52%; in series [5], 80%. In addition, the figures for the inhibition at 1 µM against hERG [3] and at CYP2D6 [7] were 5% and 7%, respectively. For the same molecule, the inhibition at 10 µM against CYP2D6 [4] was found to be 36%; at hERG [6], 2%.
Turning to `C[C@@H](NC[C@H]1C[C@@H](c2ccc(F)c(C(=O)O)c2)c2ccccc2O1)c1cccc2ccccc12`, the values for the remaining at 0.5 h, 1 µM in series [2] and in series [5] were 40% and 94%, respectively. Also, the inhibition at 10 µM against CYP2D6 [4] was 25%. In addition, on CYP2D6 [7], the inhibition at 1 µM turned out to be 5%.
Consider `C[C@@H](NCC1CN(c2cccc(OCC(=O)O)c2)c2ccccc2O1)c1cccc2ccccc12` (stereo partly specified), for which the remaining at 0.5 h, 1 µM in series [2] was determined as 87%; in series [5] it was 45%. Moreover, the inhibition at 1 µM against hERG [3] stood at 43%; against CYP2D6 [7], 6%. In addition, the inhibition at 10 µM came to 36% at CYP2D6 [4] and 66% against hERG [6]. Besides, the EC50 in series [1] (read-out: EC50) turned out to be 36.4 nM.
`C[C@@H](NCC1CN(c2ccccn2)c2ccccc2O1)c1cccc2ccccc12` (stereo partly specified): the remaining at 0.5 h, 1 µM worked out at 5% in series [2] and 2% in series [5]. Moreover, the inhibition at 10 µM on CYP2D6 [4] came out at 87%. The inhibition at 1 µM against CYP2D6 [7] turned out to be 85%.
Regarding `C[C@@H](NCC1CN(c2ccccc2)c2ccccc2O1)c1cccc2ccccc12` (mixture of isomers; form 1), the remaining at 0.5 h, 1 µM in series [2] is 3%; in series [5] it was 1%. The inhibition at 1 µM was 14% on hERG [3] and 87% on CYP2D6 [7]. Besides, the half-maximal effective concentration (EC50) in series [1] (read-out: EC50) turned out to be 53.4 nM. Further, the inhibition at 10 µM against hERG [6] came to 26%.
With `C[C@@H](NCC1CN(CC(F)(F)F)c2ccccc2O1)c1cccc2ccccc12` (stereo partly specified), the remaining at 0.5 h, 1 µM in series [2] amounted to 5%; in series [5] it was 10%. Besides, on CYP2D6 [4], the inhibition at 10 µM amounted to 82%. In addition, the inhibition at 1 µM at CYP2D6 [7] is 78%.
In the case of `C[C@@H](NCC1CN(c2cccc(C(=O)O)c2)c2ccccc2O1)c1cccc2ccccc12` (mixture of isomers; form 1), the remaining at 0.5 h, 1 µM in series [2] was 36%; in series [5] it was 49%. Moreover, the figures for the inhibition at 1 µM at hERG [3] and at CYP2D6 [7] were -1% and 27%, respectively. For the same molecule, the values for the inhibition at 10 µM against CYP2D6 [4] and against hERG [6] were 41% and -8%, respectively. Moreover, in series [1] (read-out: EC50), the concentration giving a half-maximal response (EC50) worked out at 32.8 nM.
For the molecule `COc1ccc(N2CC(CN[C@H](C)c3cccc4ccccc34)Oc3ccccc32)cc1C(=O)O` (mixture of isomers; form 2), in series [1] (read-out: EC50), the EC50 is greater than 90 nM.
In the case of `C[C@@H](NCC1CN(c2cccc(CC(=O)O)c2)c2ccccc2O1)c1cccc2ccccc12` (stereo partly specified), the EC50 in series [1] (read-out: EC50) came out at 104 nM.
For the molecule `C[C@@H](NCC1CN(c2ccc(F)c(C(=O)O)c2)c2ccccc2O1)c1cccc2ccccc12` (mixture of isomers; form 1), the remaining at 0.5 h, 1 µM in series [2] is 61%; in series [5], 6%. In addition, the inhibition at 1 µM on hERG [3] worked out at 5%. Besides, the inhibition at 10 µM against hERG [6] came out at 21%.
In the case of `Cc1ccc([C@H]2C[C@H](CN[C@H](C)c3cccc4ccccc34)Oc3ccccc32)cc1C(=O)O`, the EC50 in series [1] (read-out: EC50) stood at 58.5 nM.
Same read-out and setting: under `C[C@@H](NCC1CN(c2cccc(C(=O)O)c2)c2ccccc2O1)c1cccc2ccccc12` (mixture of isomers; form 2) stands 146 nM; under `C[C@@H](NCC1CN(C(=O)c2ccccc2)c2ccccc2O1)c1cccc2ccccc12` (mixture of isomers; form 2), 90 nM.
Turning to `C[C@@H](NC[C@H]1C[C@H](c2cccc(C(=O)O)c2)c2ccccc2O1)c1cccc2ccccc12`, the remaining at 0.5 h, 1 µM in series [2] stood at 31%; in series [5] it was 57%. The inhibition at 10 µM against CYP2D6 [4] is 24%. For the same molecule, the inhibition at 1 µM at CYP2D6 [7] was 8%.
`Cc1cc(C(=O)O)cc(N2CC(CN[C@H](C)c3cccc4ccccc34)Oc3ccccc32)c1` (mixture of isomers; form 1): the concentration for a half-maximal effect (EC50) in series [1] (read-out: EC50) turned out to be 84.1 nM.
For `C[C@@H](NCC1CN(C)c2ccccc2O1)c1cccc2ccccc12` (stereo partly specified), the remaining at 0.5 h, 1 µM amounted to 0% in series [2] and 5% in series [5]. Further, the inhibition at 1 µM against hERG [3] was 13%; against CYP2D6 [7] it was 92%. Besides, the inhibition at 10 µM was found to be 93% against CYP2D6 [4] and 42% against hERG [6].
Consider `Cc1cc(C(=O)O)cc(N2CC(CN[C@H](C)c3cccc4ccccc34)Oc3ccccc32)c1` (mixture of isomers; form 2), for which the EC50 in series [1] (read-out: EC50) worked out at 169 nM.
For the molecule `COc1ccc([C@@H]2C[C@H](CN[C@H](C)c3cccc4ccccc34)Oc3ccccc32)cc1C(=O)O`, the remaining at 0.5 h, 1 µM was 88% in series [2] and 77% in series [5]. The results for the inhibition at 1 µM against hERG [3] and on CYP2D6 [7] were -3% and 0%, respectively. Also, the results for the inhibition at 10 µM on CYP2D6 [4] and against hERG [6] were 0% and -4%, respectively.
For `Cc1c(C(=O)O)cccc1[C@@H]1C[C@H](CN[C@H](C)c2cccc3ccccc23)Oc2ccccc21`, the remaining at 0.5 h, 1 µM in series [2] was found to be 52%; in series [5], 47%. Also, at CYP2D6 [4], the inhibition at 10 µM was determined as 25%. Besides, the inhibition at 1 µM on CYP2D6 [7] is 7%.
